Measurements from PMC11653257, “Organometallic Half-Sandwich Complexes of 8-Hydroxyquinoline-Derived Mannich Bases with Enhanced Solubility: Targeting Multidrug Resistant Cancer” (Inorganic Chemistry, 2024).
Values after ≈ are worked out from the molar mass of the structure shown. Where two headings read alike, the source gives them in different places.

Key:
[1] = Ligand displacement with 2,2′-bipyridine, conditional formation constant; assay type: physicochemical; conditions: pH 7.4; bpy competitor; UV–vis
Excerpt: These pKa (H2O) values are lower than those of the complexes formed with the corresponding amino acid hybrids (HQCl-D-Pro, HQCl-D-hPro, Figure S23). Thus, the predominant complex at pH 7.4 is [M(arene)(HL)(H2O)]^2+ in all cases, in which the bidentate ligand coordinates via the (N,O^–) donor set and the pyridinium or pyrrolidinium nitrogens are protonated just like in the isolated complexes (Chart 3). Based on the unchanged spectra (vide supra), these types of complexes show no dissociation at pH = 2, indicating their high stability and hindering the direct determination of the formation constants. Therefore, a ligand displacement experiment was performed using UV–vis spectrophotometry with 2,2′-bipyridine (bpy) as a competitor to determine conditional formation constants at pH = 7.4 (Figure S25). […] Nevertheless, these values indicate a high stability of the complexes in solution, and <1% of dissociation is estimated at 1 μM concentration at pH = 7.4. The ligand displacement measurement could not be applied to the RuCym complexes due to the release of the p-cymene ring followed by the formation of the mixed ligand complex with bpy and oxidation of the metal center (Figure S26), similarly to analogue complexes.[14],[26],[27]

MES-SA [2] = assay: Cytotoxicity in double coculture, MES-SA mCherry; conditions: read-out: IC50 MES-SA, 144 h
Experimental: Therefore, the novel half-sandwich complexes (1–4) and their corresponding ligands were tested against a coculture of MES-SA and MES-SA/Dx5 cells expressing the fluorescent proteins mCherry or eGFP, respectively.[62]
The tested compounds were dissolved in 50% (v/v) DMSO/PBS’ buffer to prepare 5–10 mM stock solutions, which were diluted in complete culture medium. Constitutive expression of the fluorescent proteins allowed multiplexing in cytotoxicity experiments.[62] […] Serial dilutions of the compounds were added 24 h after seeding. To address the effect of P-gp function, TQ was added at a nontoxic concentration (0.4 μM) 15 min before the test compounds. […] IC50 values and standard deviation were calculated from average pIC50 values from at least 3 independent measurements.

MES-SA [3] = assay: Cytotoxicity in triple coculture, MES-SA mCherry; assay type: cell-based, human; conditions: MES-SA/B1, MES-SA/Dx5, 144 h
Experimental: (§1) Cell lines were purchased from the American Type Culture Collection (ATCC). MES-SA/B1 is a human MDR1-transfected derivative of MES-SA, and MES-SA mCherry, MES-SA/B1 mOrange, and MES-SA/Dx5 eGFP were engineered to stably express the respective fluorescent proteins previously.[62] Cells were kept in culture medium (DMEM) supplemented with 10% fetal bovine serum, 2 mM L-glutamine, 100 units/mL penicillin, and 100 μg/mL streptomycin (Thermo Fisher). One week before use, MES-SA/Dx5 eGFP cells were treated with 0.5 μM doxorubicin to ensure ABCB1/P-gp expression.
(§2) The tested compounds were dissolved in 50% (v/v) DMSO/PBS’ buffer to prepare 5–10 mM stock solutions, which were diluted in complete culture medium. Constitutive expression of the fluorescent proteins allowed multiplexing in cytotoxicity experiments.[62] Cells were mixed before seeding in 384-well plates: in double cocultures, MES-SA mCherry and MES-SA/Dx5 eGFP cells were seeded at 1250–1250 cells/well (in total 2500 cells/well); while in triple cocultures, MES-SA mCherry, MES-SA/Dx5 eGFP and MES-SA/B1 mOrange cells were seeded at 800–800–800 cells/well (in total 2400 cells/well). Serial dilutions of the compounds were added 24 h after seeding. To address the effect of P-gp function, TQ was added at a nontoxic concentration (0.4 μM) 15 min before the test compounds. The intensity of the fluorescent proteins, which is proportional to cell mass, was measured after 144 h of incubation at the respective fluorescent channels (excitation/emission: eGFP: 485 nm/510 nm; mOrange: 545 nm/567 nm; mCherry: 585 nm/610 nm). pIC50 values were calculated by a custom program written by Judit Sessler in C#.[62] IC50 values and standard deviation were calculated from average pIC50 values from at least 3 independent measurements.

MES-SA/Dx5 = assay: Cytotoxicity in double coculture, MES-SA/Dx5 eGFP; conditions: for SR = IC50 (MES-SA)/IC50 (MES-SA/Dx5): double coculture; for IC50: read-out: IC50 MES-SA/Dx5
[4] = tested on: methicillin-resistant S. aureus (MRSA) ATCC 43300; assay: Antibacterial MIC, MRSA; assay type: cell-based, Staphylococcus aureus; conditions: Mueller Hinton Broth, 37 °C, 18 h
Experimental: (§3) Escherichia coli (ATCC 25922) was used as Gram-negative strain and Staphylococcus aureus (ATCC 25923, methicillin-resistant (MRSA) ATCC 43300) strains were applied as Gram-positive bacterial cultures in the experiments. MIC values of the compounds were determined in 96-well plates based on the Clinical and Laboratory Standard Institute guidelines (CLSI guidelines).[76] The stock solutions of the compounds (same as those used for cytotoxicity experiments) were diluted in 100 μL of Mueller Hinton Broth. Then, 10^–4 dilution of an overnight bacterial culture in 100 μL of medium was added to each well, with the exception of the medium control wells.

[5] = n-octanol/water distribution coefficient (shake-flask); assay type: physicochemical; conditions: pH 7.4
Experimental: The exchange of the coligand (H2O/Cl^–) changes the overall charge of the complex, thus affecting lipophilicity. […] The traditional shake-flask method was used to obtain distribution coefficients of the ligands as well as of the complexes in n-octanol/buffered aqueous solution (20 mM phosphate, pH = 7.4) at different chloride ion concentrations (4, 24, and 100 mM) using UV–vis spectrophotometry (Agilent Cary 8454 diode array spectrophotometer, Santa Clara, CA, USA) for the analysis. The compounds were dissolved in buffered aqueous solutions previously saturated with n-octanol. Then the aqueous and n-octanol phases were gently mixed in different volume ratios (using 1:60 for the ligands, 1:1 for the RhCp* and 1:2 for the RuCym complexes ratios of n-octanol to buffered aqueous solution volume) for 4 h, followed by phase separation. Then the UV–vis spectrum of the aqueous or n-octanol phase was recorded and compared to the reference spectrum. Stock solutions were made in the aqueous phase, and distribution coefficients (DpH) were calculated by the following equation: [drawing 3]

[6] = tested on: Escherichia coli (ATCC 25922); assay: Antibacterial MIC, E. coli; assay type: cell-based; conditions: Mueller Hinton Broth, 37 °C, 18 h
Experimental: as §3

[7] = biological target: human serum albumin (HSA), site II (Homo sapiens, UniProt P02768); assay: HSA dansylglycine (DG) site marker displacement
Experimental: (§4) Next, spectrofluorometric measurements were also performed to gain insight into the binding interactions that may occur in the hydrophobic binding sites of HSA. Tryptophan (Trp214) quenching experiments were conducted for the complexes (1–4) (for complex (3) see Figure S31) and their ligands). […] To monitor the binding at site II, site marker displacement experiments were performed using dansylglycine (DG).
(§5) Fluorescence measurements were carried out on a Fluoromax (Horiba Jobin Yvon, Longjumeau, France) spectrofluorometer using a 1 cm × 1 cm quartz cuvette. […] Excitation wavelengths were 295 nm for Trp-214 quenching and 340 nm for the DG displacement studies. The calculated conditional stability constants for HSA–complex species were obtained using the computer program HypSpec.[64] Calculations always were based on data obtained from at least two independent measurements.

[8] = biological target: human serum albumin (HSA), Trp214 / site I (Homo sapiens, UniProt P02768); assay: HSA Trp214 fluorescence quenching
Experimental: as §4, §5

[9] = tested on: Staphylococcus aureus (ATCC 25923); assay: Antibacterial MIC, S. aureus; assay type: cell-based; conditions: Mueller Hinton Broth, 37 °C, 18 h
Experimental: as §3

MES-SA/B1 = assay: Cytotoxicity in triple coculture, MES-SA/B1 mOrange; assay type: cell-based, human
Experimental: as §1, §2

A431 = tested on: A431; parameters: method as in earlier work; conditions: monoculture, 72 h, PrestoBlue; ref SI3; cited from earlier work

human serum albumin (HSA), Trp214 / site I, sequence (P02768 25-609): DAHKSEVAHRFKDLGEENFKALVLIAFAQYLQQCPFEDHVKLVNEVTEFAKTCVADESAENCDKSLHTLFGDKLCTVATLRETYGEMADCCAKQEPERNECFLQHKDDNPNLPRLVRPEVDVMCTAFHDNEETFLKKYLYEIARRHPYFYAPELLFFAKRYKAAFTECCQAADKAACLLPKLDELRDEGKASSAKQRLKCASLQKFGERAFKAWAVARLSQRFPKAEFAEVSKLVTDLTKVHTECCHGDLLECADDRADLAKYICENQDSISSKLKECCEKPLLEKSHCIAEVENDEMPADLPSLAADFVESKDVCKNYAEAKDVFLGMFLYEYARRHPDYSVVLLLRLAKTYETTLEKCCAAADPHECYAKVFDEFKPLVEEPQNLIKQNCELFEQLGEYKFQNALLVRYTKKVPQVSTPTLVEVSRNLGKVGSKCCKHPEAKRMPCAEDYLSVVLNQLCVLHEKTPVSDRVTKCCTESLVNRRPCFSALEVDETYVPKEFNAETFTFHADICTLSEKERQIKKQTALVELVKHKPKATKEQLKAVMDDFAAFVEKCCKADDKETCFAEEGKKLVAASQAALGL
human serum albumin (HSA), site II, sequence (P02768 25-609): as above

For [RhCp*(HQCl-Pip)Cl]Cl [(3)], the “logK’ [M(arene)L]7.4 conditional formation constant” value [1] was 11.89 ± 0.03, the IC50 (MES-SA [2]; double coculture with MES-SA/Dx5, without TQ) was 2.04 µM and the IC50 (MES-SA [3]) was 2.11 µM. For the same compound, the “SR = IC50 (MES-SA)/IC50 (MES-SA/Dx5)” value (MES-SA/Dx5; + 0.4 μM tariquidar (TQ)) was 1.3, the “SR = IC50 (MES-SA)/IC50 (MES-SA/Dx5)” value (MES-SA/Dx5; without TQ) was 9.1 and the IC50 (MES-SA/Dx5; double coculture with MES-SA, 144 h, without TQ) was 0.22 µM. For the same compound, the MIC [4] was 25 µM, the logD7.4 ([5]; c(Cl–) = 4 mM) was “+0.34 ± 0.01” and the logD7.4 ([5]; c(Cl–) = 24 mM) was “+0.58 ± 0.01”. For the same compound, the logD7.4 ([5]; c(Cl–) = 100 mM) was “+0.60 ± 0.01”, the MIC [6] was 50 µM and the “logK’(DG)” value ([7]; cHSA = cDG = 1 μM, λEX = 335 nm (DG), pH 7.4 (PBS’), […], 24 h) was 5.0 ± 0.1. The “logK’(quenching)” value ([8]; 1 μM HSA, λEX = 295 nm (Trp-214), pH 7.4 (PBS’), […], 24 h) was 5.1 ± 0.1, the MIC [9] was 50 µM and the “SR B1 = IC50 (MES-SA)/IC50 (MES-SA/B1)” value (MES-SA/B1) was 2.9. The IC50 (MES-SA/B1; 144 h) was 0.74 µM.

Work on `Oc1c(CN2CCCCC2)cc(Cl)c2cccnc12` [HQCl-pip, 5-chloro-7-(piperidin-1-ylmethyl)quinolin-8-ol] yielded an IC50 (MES-SA [2]; Homo sapiens, MES-SA) of 1.09 µM, an IC50 (MES-SA/Dx5; Homo sapiens, MES-SA/Dx5, 144 h) of 0.09 µM and an MIC ([4]; Staphylococcus aureus) of 25 µM (≈ 6.92 µg/mL). For the same compound, the logD at 4 h ([5]; n-octanol/buffered aqueous solution, n-octanol/H2O, read-out: log D7.4) was 2.54, the MIC ([6]; Escherichia coli, ATCC25922) was 50 µM (≈ 13.8 µg/mL) and the IC50 (A431) was 6.67 ± 1.69 µM. It also gave a Kd [7] of 3.98 µM, a Kd [8] of 7.94 µM and an MIC ([9]; Staphylococcus aureus, ATCC25923) of 50 µM (≈ 13.8 µg/mL). It also gave an IC50 (MES-SA/B1; Homo sapiens, MES-SA/B1, 144 h) of 0.38 µM.
